Assay results from ChEMBL document CHEMBL1201862, “PubChem BioAssay data set” (2004).
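Dose response: 5 concentrations. Exposure: 48 h. Format: 96-well plates. Endpoint: linear interpolation; highest concentration if not reached. GI50: concentration for 50% inhibition of growth.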 Activity calls are given as the source filed them. Rule as the data show it: active = GI50 up to about 1.1 µM and inactive = higher.

Legend:
Assay in all cases: growth of human tumour cells (NCI), 48 h
A549 = test system: A549
CAKI-1 = test system: CAKI-1
CCRF-CEM = test system: CCRF-CEM
COLO 205 = test system: COLO 205
HOP-62 = test system: HOP-62
HT-29 = test system: HT-29
IGROV-1 = test system: IGROV-1
MDA-MB-231 = test system: MDA-MB-231
MDA-MB-435 = test system: MDA-MB-435
NCI-H226 = test system: NCI-H226
NCI-H23 = test system: NCI-H23
OVCAR-8 = test system: OVCAR-8
PC-3 = test system: PC-3
RXF 393 = test system: RXF 393
SK-MEL-28 = test system: SK-MEL-28
SK-MEL-2 = test system: SK-MEL-2
SK-MEL-5 = test system: SK-MEL-5
SK-OV-3 = test system: SK-OV-3
SN12C = test system: SN12C
UACC-257 = test system: UACC-257

Measured: GI50

COc1ccc2cc(-c3ccc(OC)c(OC)c3)c(=O)oc2c1
inactive: A549 > 100 µM | CAKI-1 > 100 µM | CCRF-CEM > 100 µM | COLO 205 > 100 µM | HOP-62 69.5 µM | HT-29 > 100 µM | IGROV-1 > 100 µM | MDA-MB-231 48.6 µM | MDA-MB-435 > 100 µM | NCI-H226 > 100 µM | NCI-H23 > 100 µM | OVCAR-8 > 100 µM | PC-3 > 100 µM | RXF 393 21.4 µM | SK-MEL-28 > 100 µM | SK-MEL-2 > 100 µM | SK-MEL-5 > 100 µM | SK-OV-3 > 100 µM | SN12C > 100 µM | UACC-257 > 100 µM

C=C1C(=O)O[C@@H]2/C=C(C)/C=C\[C@@H]3O[C@@]3(C)C[C@@H](O)C12 (stereo not given in full)
inactive: A549 47.5 µM | CAKI-1 8.91 µM | CCRF-CEM 1.66 µM | COLO 205 5.2 µM | HOP-62 36.1 µM | HT-29 10 µM | IGROV-1 13 µM | MDA-MB-231 > 10 µM | MDA-MB-435 18 µM | NCI-H226 9.1 µM | NCI-H23 13.2 µM | OVCAR-8 17.4 µM | PC-3 24.5 µM | RXF 393 18.7 µM | SK-MEL-28 19.9 µM | SK-MEL-2 30.8 µM | SK-MEL-5 14.6 µM | SK-OV-3 54 µM | SN12C 13.4 µM | UACC-257 11.8 µM

CCOC(=O)C1(C(=O)OCC)[C@H](c2ccccc2)C2=NO[C@@H]3CCC[C@H]1[C@H]23
inactive: A549 55.6 µM | CAKI-1 48.3 µM | CCRF-CEM 35.2 µM | COLO 205 33 µM | HOP-62 20.5 µM | HT-29 35.8 µM | IGROV-1 56.8 µM | MDA-MB-231 75.7 µM | MDA-MB-435 21.4 µM | NCI-H226 32.9 µM | NCI-H23 57.1 µM | OVCAR-8 75.3 µM | PC-3 49.3 µM | RXF 393 52.1 µM | SK-MEL-28 > 100 µM | SK-MEL-2 40.9 µM | SK-MEL-5 31.3 µM | SK-OV-3 30.1 µM | SN12C > 100 µM | UACC-257 31.6 µM

CC(=N\N)/C(C)=N/N=C(C)/C(C)=N/N
inactive: A549 > 100 µM | CAKI-1 > 100 µM | CCRF-CEM > 100 µM | COLO 205 > 100 µM | HOP-62 > 100 µM | HT-29 > 100 µM | IGROV-1 > 100 µM | MDA-MB-231 > 100 µM | MDA-MB-435 > 100 µM | NCI-H226 > 100 µM | NCI-H23 > 100 µM | OVCAR-8 > 100 µM | PC-3 > 100 µM | RXF 393 > 100 µM | SK-MEL-28 > 100 µM | SK-MEL-2 > 100 µM | SK-MEL-5 > 100 µM | SK-OV-3 > 100 µM | SN12C > 100 µM | UACC-257 > 100 µM

Sc1nn2c(Cc3ccccc3)nnc2s1
inactive: A549 > 100 µM | CAKI-1 > 100 µM | CCRF-CEM > 100 µM | COLO 205 > 100 µM | HOP-62 > 100 µM | HT-29 > 100 µM | IGROV-1 > 100 µM | MDA-MB-231 > 100 µM | MDA-MB-435 > 100 µM | NCI-H226 89.9 µM | NCI-H23 > 100 µM | OVCAR-8 > 100 µM | PC-3 > 100 µM | RXF 393 > 100 µM | SK-MEL-28 > 100 µM | SK-MEL-2 > 100 µM | SK-MEL-5 > 100 µM | SK-OV-3 > 100 µM | SN12C > 100 µM | UACC-257 > 100 µM
